Test results: article PMC11903733 (Frontiers in Pharmacology, 2025)

Assays:
Test in all cases: SelectScreen kinase profiling
Assay type in all cases: biochemical
CDK3 = CDK3 (Homo sapiens, UniProt Q00526)
Protocol: (§1) The kinase selectivity analysis of LTM-1 was performed utilizing the SelectScreen Kinase Profiling Service offered by Thermo Fisher Scientific. In a dose-response assay featuring a ten-point dilution series from 0.25 μM to 128 μM, the inhibitory effects of LTM-1 on substrate phosphorylation reactions catalyzed by a panel of kinases were assessed. Consequently, the half-maximal inhibitory concentrations (IC50 values) for each kinase were determined.

CSF1R = CSF1R (Homo sapiens, UniProt P07333)
Protocol: as §1

PIM1 = PIM1 (Homo sapiens, UniProt P11309)
Protocol: as §1

EPHA1 = EPHA1 (Homo sapiens, UniProt P21709)
Protocol: as §1

BLK = BLK (Homo sapiens, UniProt P51451)
Protocol: as §1

AXL = AXL (Homo sapiens, UniProt P30530)
Protocol: as §1

BTK = BTK (Homo sapiens, UniProt Q06187)
Protocol: as §1

NTRK3 = NTRK3 (Homo sapiens, UniProt Q16288)
Protocol: as §1

FES = FES (Homo sapiens, UniProt P07332)
Protocol: as §1

MERTK = MERTK (Homo sapiens, UniProt Q12866)
Protocol: as §1

CDK5 = CDK5 (Homo sapiens, UniProt Q00535)
Protocol: as §1

PLK2 = PLK2 (Homo sapiens, UniProt Q9NYY3)
Protocol: as §1

JAK3 = JAK3 (Homo sapiens, UniProt P52333)
Protocol: as §1

ABL2 = ABL2 (Homo sapiens, UniProt P42684)
Protocol: as §1

JAK1 = JAK1 (Homo sapiens, UniProt P23458)
Protocol: as §1

NTRK1 = NTRK1 (Homo sapiens, UniProt P04629)
Protocol: as §1

FGFR2 = FGFR2 (Homo sapiens, UniProt P21802)
Protocol: as §1

FYN = FYN (Homo sapiens, UniProt P06241)
Protocol: as §1

CDK4 = CDK4 (Homo sapiens, UniProt P11802)
Protocol: as §1

JAK2 = JAK2 (Homo sapiens, UniProt O60674)
Protocol: as §1

DDR2 = DDR2 (Homo sapiens, UniProt Q16832)
Protocol: as §1

EPHB2 = EPHB2 (Homo sapiens, UniProt P29323)
Protocol: as §1

CDK7 = CDK7 (Homo sapiens, UniProt P50613)
Protocol: as §1

ITK = ITK (Homo sapiens, UniProt Q08881)
Protocol: as §1

MST1R = MST1R (Homo sapiens, UniProt Q04912)
Protocol: as §1

PDGFRB = PDGFRB (Homo sapiens, UniProt P09619)
Protocol: as §1

FGFR1 = FGFR1 (Homo sapiens, UniProt P11362)
Protocol: as §1

PDGFRA = PDGFRA (Homo sapiens, UniProt P16234)
Protocol: as §1

PLK1 = PLK1 (Homo sapiens, UniProt P53350)
Protocol: as §1

CDK12 = CDK12 (Homo sapiens, UniProt Q9NYV4)
Protocol: as §1

EPHB1 = EPHB1 (Homo sapiens, UniProt P54762)
Protocol: as §1

NTRK2 = NTRK2 (Homo sapiens, UniProt Q16620)
Protocol: as §1

CDK1 = CDK1 (Homo sapiens, UniProt P06493)
Protocol: as §1

CDK8 = CDK8 (Homo sapiens, UniProt P49336)
Protocol: as §1

LYN = LYN (Homo sapiens, UniProt P07948)
Protocol: as §1

LTK = LTK (Homo sapiens, UniProt P29376)
Protocol: as §1

EPHB3 = EPHB3 (Homo sapiens, UniProt P54753)
Protocol: as §1

CDK2 = CDK2 (Homo sapiens, UniProt P24941)
Protocol: as §1

ZAK = ZAK (Homo sapiens, UniProt Q9NYL2)
Protocol: as §1

ROS1 = ROS1 (Homo sapiens, UniProt P08922)
Protocol: as §1

DDR1 = DDR1 (Homo sapiens, UniProt Q08345)
Protocol: as §1

FGFR3 = FGFR3 (Homo sapiens, UniProt P22607)
Protocol: as §1

ABL1 = ABL1 (Homo sapiens, UniProt P00519)
Protocol: as §1

Measured: IC50

Sequence of CSF1R (P07333 20-972): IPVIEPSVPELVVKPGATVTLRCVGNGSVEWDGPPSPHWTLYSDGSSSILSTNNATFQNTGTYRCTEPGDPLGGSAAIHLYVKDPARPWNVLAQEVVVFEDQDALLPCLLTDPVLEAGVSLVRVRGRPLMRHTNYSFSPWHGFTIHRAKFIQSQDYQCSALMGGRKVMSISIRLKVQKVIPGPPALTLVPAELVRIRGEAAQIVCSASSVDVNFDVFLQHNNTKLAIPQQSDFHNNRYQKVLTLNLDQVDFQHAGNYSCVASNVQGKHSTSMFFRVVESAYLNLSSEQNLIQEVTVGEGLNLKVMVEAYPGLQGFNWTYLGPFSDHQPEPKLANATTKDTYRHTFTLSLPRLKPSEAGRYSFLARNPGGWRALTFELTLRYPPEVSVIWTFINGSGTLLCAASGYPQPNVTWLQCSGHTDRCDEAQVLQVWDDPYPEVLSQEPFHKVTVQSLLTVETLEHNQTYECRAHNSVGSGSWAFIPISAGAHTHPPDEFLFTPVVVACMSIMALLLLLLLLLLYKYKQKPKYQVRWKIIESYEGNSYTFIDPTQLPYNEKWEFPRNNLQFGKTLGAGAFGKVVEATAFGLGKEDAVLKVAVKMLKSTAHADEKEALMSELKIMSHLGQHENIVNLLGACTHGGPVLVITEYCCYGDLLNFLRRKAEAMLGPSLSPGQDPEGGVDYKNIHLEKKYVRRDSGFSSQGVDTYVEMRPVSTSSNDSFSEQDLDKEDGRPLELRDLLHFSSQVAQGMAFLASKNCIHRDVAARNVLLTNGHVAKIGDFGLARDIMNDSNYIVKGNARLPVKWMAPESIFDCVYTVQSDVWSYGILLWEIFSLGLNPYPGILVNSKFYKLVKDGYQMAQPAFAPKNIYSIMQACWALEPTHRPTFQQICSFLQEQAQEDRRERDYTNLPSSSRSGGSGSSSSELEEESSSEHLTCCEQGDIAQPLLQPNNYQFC
Sequence of CDK7 (P50613 whole entry): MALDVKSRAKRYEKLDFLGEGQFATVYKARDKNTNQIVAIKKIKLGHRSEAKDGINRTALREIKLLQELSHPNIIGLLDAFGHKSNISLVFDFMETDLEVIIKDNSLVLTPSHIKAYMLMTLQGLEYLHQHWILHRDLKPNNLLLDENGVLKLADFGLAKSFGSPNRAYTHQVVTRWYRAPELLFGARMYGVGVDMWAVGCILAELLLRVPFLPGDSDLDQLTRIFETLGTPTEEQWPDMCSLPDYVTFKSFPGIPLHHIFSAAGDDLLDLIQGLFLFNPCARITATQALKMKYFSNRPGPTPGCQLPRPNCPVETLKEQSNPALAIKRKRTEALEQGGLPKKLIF
Sequence of CDK7 (P51946 whole entry partner): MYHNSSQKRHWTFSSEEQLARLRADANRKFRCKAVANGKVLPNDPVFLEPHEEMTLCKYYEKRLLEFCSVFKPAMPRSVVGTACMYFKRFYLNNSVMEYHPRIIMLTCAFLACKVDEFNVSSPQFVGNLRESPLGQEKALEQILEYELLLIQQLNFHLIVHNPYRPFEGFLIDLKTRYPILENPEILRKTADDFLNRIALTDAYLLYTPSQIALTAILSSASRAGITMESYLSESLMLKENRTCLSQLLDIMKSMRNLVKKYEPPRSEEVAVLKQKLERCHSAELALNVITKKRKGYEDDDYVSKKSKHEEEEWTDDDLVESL
Sequence of CDK7 (P51948 whole entry partner): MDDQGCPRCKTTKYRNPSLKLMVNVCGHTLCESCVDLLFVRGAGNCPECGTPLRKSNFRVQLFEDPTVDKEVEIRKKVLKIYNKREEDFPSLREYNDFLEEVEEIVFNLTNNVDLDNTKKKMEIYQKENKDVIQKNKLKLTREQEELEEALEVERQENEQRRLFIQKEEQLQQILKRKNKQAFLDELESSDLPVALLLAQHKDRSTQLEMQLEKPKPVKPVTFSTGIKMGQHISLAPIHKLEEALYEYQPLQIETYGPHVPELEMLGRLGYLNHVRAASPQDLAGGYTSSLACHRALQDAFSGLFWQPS
Sequence of FGFR3 (P22607 23-806): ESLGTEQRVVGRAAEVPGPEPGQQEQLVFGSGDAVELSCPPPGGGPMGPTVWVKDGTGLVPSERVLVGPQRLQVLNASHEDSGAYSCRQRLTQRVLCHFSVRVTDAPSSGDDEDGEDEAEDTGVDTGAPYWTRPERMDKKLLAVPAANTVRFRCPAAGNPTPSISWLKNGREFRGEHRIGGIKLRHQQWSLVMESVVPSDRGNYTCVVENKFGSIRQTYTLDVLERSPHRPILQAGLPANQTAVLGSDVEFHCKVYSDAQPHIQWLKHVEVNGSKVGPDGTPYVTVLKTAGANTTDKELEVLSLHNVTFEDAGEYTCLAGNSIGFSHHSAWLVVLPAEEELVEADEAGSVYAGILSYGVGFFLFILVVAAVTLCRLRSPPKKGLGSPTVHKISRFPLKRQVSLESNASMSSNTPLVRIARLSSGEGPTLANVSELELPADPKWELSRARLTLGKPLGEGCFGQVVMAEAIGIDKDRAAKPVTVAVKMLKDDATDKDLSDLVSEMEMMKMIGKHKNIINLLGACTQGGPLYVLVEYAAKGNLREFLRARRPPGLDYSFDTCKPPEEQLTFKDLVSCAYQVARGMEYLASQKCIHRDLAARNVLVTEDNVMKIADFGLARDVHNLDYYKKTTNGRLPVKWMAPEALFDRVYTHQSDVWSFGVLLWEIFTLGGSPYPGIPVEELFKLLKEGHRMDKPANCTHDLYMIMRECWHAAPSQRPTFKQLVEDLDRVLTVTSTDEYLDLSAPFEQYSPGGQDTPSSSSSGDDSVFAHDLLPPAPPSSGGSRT
Sequence of ABL1 (P00519 whole entry): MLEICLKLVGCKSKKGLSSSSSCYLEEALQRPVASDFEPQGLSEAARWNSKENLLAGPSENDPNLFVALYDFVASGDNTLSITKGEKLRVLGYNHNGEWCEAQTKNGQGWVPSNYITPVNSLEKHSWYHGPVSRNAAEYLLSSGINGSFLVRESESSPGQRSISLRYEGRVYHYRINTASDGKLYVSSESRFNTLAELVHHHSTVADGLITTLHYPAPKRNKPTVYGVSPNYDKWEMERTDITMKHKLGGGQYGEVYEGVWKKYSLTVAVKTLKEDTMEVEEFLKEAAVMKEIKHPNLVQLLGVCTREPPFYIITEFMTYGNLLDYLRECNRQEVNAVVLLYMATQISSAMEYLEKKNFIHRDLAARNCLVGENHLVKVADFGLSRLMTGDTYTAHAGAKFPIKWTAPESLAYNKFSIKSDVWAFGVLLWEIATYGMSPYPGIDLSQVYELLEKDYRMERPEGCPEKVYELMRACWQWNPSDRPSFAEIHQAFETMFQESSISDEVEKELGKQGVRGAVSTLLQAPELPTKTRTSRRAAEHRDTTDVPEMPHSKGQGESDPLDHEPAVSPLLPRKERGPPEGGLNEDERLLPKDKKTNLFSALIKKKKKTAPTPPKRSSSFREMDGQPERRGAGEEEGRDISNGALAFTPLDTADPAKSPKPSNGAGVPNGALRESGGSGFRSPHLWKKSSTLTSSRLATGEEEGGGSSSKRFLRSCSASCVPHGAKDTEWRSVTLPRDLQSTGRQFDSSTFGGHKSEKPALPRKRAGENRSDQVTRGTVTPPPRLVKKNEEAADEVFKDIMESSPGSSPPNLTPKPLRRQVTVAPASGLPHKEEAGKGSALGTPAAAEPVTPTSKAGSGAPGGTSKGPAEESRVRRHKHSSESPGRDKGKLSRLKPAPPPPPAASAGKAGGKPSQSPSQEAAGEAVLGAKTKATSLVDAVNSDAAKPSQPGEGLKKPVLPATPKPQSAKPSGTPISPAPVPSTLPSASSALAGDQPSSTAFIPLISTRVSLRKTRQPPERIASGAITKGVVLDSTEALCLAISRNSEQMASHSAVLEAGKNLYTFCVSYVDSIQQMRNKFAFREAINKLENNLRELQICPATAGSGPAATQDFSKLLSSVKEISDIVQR
Sequence of BLK (P51451 whole entry): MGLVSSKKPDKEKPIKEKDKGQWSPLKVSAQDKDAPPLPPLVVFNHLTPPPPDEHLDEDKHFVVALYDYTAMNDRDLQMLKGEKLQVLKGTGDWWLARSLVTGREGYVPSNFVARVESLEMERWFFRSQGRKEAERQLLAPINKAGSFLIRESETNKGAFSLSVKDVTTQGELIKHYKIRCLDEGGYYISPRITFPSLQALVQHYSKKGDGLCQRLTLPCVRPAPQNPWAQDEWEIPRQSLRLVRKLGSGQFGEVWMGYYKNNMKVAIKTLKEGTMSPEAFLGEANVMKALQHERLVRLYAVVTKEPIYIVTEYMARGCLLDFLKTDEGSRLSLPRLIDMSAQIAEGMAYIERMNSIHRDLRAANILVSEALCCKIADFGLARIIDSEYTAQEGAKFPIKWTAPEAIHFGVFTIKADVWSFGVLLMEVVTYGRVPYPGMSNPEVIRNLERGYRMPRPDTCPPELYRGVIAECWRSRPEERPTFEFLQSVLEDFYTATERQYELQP
Sequence of CDK4 (P11802 whole entry): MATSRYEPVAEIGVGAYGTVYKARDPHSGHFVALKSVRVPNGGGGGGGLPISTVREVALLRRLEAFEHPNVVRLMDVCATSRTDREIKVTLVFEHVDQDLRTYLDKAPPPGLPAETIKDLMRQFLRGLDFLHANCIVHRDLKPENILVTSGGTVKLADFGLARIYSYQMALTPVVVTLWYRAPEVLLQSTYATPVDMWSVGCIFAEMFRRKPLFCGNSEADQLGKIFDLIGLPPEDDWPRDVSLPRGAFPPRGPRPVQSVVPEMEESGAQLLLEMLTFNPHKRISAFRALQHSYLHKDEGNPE
Sequence of CDK4 (P24385 whole entry partner): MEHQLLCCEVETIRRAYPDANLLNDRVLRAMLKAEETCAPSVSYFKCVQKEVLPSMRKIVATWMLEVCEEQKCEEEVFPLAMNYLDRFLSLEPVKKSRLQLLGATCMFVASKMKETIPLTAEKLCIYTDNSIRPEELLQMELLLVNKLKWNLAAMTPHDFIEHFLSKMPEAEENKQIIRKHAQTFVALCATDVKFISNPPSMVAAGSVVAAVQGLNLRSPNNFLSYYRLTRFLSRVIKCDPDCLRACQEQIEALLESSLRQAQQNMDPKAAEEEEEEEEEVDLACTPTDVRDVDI

O=S(=O)(c1ccc(C(O)CO)c(C(F)(F)F)c1)N1CCc2cc(C3CC3NCC3CCNCC3)ccc21 (stereo not shown) [LTM-1]
> 10 µM: CDK3 | CSF1R | PIM1 | EPHA1 | BLK | AXL | BTK | NTRK3 | FES | MERTK | CDK5 | PLK2 | JAK3 | ABL2 | JAK1 | NTRK1 | FGFR2 | FYN | CDK4 | JAK2 | DDR2 | EPHB2 | CDK7 | ITK | MST1R | PDGFRB | FGFR1 | PDGFRA | PLK1 | CDK12 | EPHB1 | NTRK2 | CDK1 | CDK8 | LYN | LTK | EPHB3 | CDK2 | ZAK | ROS1 | DDR1 | FGFR3 | ABL1
